Legend:
[1] = Stirring a suspension of form A in MTBE, form B estimated by X-ray powder diffraction; type: physicochemical
[2] = Tabletting in a cam press: formation of form B under mechanical pressure, estimated by X-ray powder diffraction; type: physicochemical
Experimental: The pressures here are preferably those which usually prevail during tablet production if ram forces of between about 2 and 16 kN, in particular between 6 and 16 kN, are used as the maximum pressing forces.
In an EK0 cam press from Korsch (Berlin, Germany), year of construction 2002, tablets are produced at a rate of 50 units per minute using a 7 mm, round, flat ram with bevel.
The tablets contain 50 mg of EMD281014 in crystal form A, 93.2 mg of lactose monohydrate, 4.5 mg of croscarmellose and 2.3 mg of magnesium stearate. The ingredients are dry-mixed and compressed directly.
The proportion of form B is estimated by comparison of the X-ray powder diffraction patterns of the mixtures (FIGS. 3 and 4) with the diffraction patterns of the pure forms (FIGS. 1 and 2).

5-HT2A receptor [3] = molecular target: T1, 5-HT2A receptor (Homo sapiens, UniProt P28223); settings: background statement, no values; cited from earlier work
5-HT2A receptor [4] = molecular target: T1, 5-HT2A receptor; settings: background statement, no values; cited from earlier work; remark: listed apart in the source
[5] = Storage of form B at elevated temperature, conversion into form A; type: physicochemical; settings: storage at 105° C. for 24 hours
Experimental: Furthermore, a very simple method for the preparation of form A from form B has been found. To this end, form B merely needs to be stored at elevated temperatures of between about 75 and about 225° C., preferably 90 and 160° C. and particularly preferably between 110 and 140° C. Depending on the temperature and the storage duration, different degrees of conversion can be achieved. Depending on the target degree of conversion, the storage duration at a given temperature can be between a few minutes and several days. In order to achieve high degrees of conversion, […] is preferably stored for from several hours to days. Suitable storage times are, for example, 4, 8, 12, 16, 20, 24, 36 or 48 hours.

[6] = cam press, contact time 310 ms, maximum pressing force 16 kN

T1 sequence (P28223 whole entry): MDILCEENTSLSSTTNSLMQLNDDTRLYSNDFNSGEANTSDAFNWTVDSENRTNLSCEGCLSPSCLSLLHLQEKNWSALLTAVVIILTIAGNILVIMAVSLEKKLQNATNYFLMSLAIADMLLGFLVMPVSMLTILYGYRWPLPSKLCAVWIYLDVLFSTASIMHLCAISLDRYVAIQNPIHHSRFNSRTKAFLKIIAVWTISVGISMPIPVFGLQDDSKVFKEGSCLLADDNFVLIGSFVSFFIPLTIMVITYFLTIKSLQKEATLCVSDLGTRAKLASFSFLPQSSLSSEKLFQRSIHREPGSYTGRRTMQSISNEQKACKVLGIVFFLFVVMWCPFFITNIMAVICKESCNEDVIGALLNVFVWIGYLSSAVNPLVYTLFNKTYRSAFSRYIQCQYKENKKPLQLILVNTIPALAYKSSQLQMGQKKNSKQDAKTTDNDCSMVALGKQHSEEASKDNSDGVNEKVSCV

Cl.N#Cc1c[nH]c2c(C(=O)N3CCN(CCc4ccc(F)cc4)CC3)cccc12 [EMD281014 form A, 7-{4-[2-(4-fluorophenyl)ethyl]-piperazine-1-carbonyl}-1H-indole-3-carbonitrile, hydrochloride]
proportion of form B ([1]; 250 mg in 5 ml MTBE, stirred 14 days at room temperature): about 30 % by weight | form B obtained in addition to form A ([1]; suspension in MTBE, room temperature, 14 days): about 30% | proportion of form B ([2]; cam press, contact time 250 ms, maximum pressing force 6 kN): about 20% | proportion of form A in the mixture obtained [2, 6]: ~75% | proportion of form B in the mixture obtained [2, 6]: about 25%

Cl.N#Cc1c[nH]c2c(C(=O)N3CCN(CCc4ccc(F)cc4)CC3)cccc12 [EMD281014, (3-cyano-1H-indol-7-yl)-[4-(4-fluorophenethyl)piperazin-1-yl]methanone, hydrochloride]
5-HT2A receptor-antagonistic properties (5-HT2A receptor [3]): 5-HT2A receptor-antagonistic properties | affinity to 5-HT2A receptors (5-HT2A receptor [4]): strong affinity

Cl.N#Cc1c[nH]c2c(C(=O)N3CCN(CCc4ccc(F)cc4)CC3)cccc12 [EMD281014 form B, (3-cyano-1H-indol-7-yl)-[4-(4-fluorophenethyl)piperazin-1-yl]methanone, hydrochloride]
conversion of B into A [5]: complete conversion | stability under the tablet production conditions ([2]; X-ray diffraction patterns of tablets produced from form B, no form A or further polymorphic forms unambiguously identified): stable

Source: US7981897B2, “Crystal form of (3-cyano-1H-Indo1-7-yl)-[4-(4-fluorophenethyl)piperazin-1-yl]methanone, hydrochloride” (Merck Patent GmbH, priority 2004, dated 2011)
